Columns and labels:
[1] = test system: patients with indolent mastocytosis with handicap bearing the D816V c-Kit mutation; test: Example 3 a posteriori analysis of new handicap and response criteria; format: in vivo, human
Text: Of relevance to the invention described, the concepts of a restricted mast cell mediator release associated handicap population and a more stringently defined response criterion have been explored via a posteriori data analysis of a common study population. […] (Note, any discrepancies between directly equivalent data presented in example 2 and example 3 are due to the former being taken from preliminary data analysis and the latter being extended/validated data from that study).
A posteriori data analysis was carried out on a new, restricted mast cell mediator release associated handicap population (wherein patients were classified as having a handicap if after appropriate symptomatic treatments they fulfilled at least one of the following criteria: number of flushes/week ≥7; pruritus score ≥6; number of stools ≥4/day (i.e. diarrhea); micturition frequency ≥8/day (i.e. pollakiuria); Hamilton rating for depression ≥14; Fatigue Impact Scale (FIS) score ≥75; or EORTC quality-of-life questionnaire (QLQ-C30) score ≥60). […]

[2] = test system: patients with indolent forms of mastocytosis with handicap; test: Example 1 phase 2a study, safety assessment

In the case of `Cc1ccc(NC(=O)c2ccc(CN3CCN(C)CC3)cc2)cc1Nc1nc(-c2cccnc2)cs1` [masitinib, 4-(4-methylpiperazin-1-ylmethyl)-N-[4-methyl-3-(4-pyridin-3ylthiazol-2-ylamino)phenyl]benzamide], the overall response rate ([1]; new handicap thresholds and response criterion, n=11) was 52%, the overall response rate ([1]; original handicap thresholds and response criterion, n=14) was 62% and the “Early study discontinuation: Adverse event” value ([2]; All (N = 25)) was 12 N, %. For the same molecule, the “incidence of skin rash” value ([2]; after W12) was “no incidence”, the “At least one suspected AE” value ([2]; extension phase, All (N = 17)) was 10 (58.8%) subjects (%) and the “suspected AE: Abdominal pain” value ([2]; extension phase, All (N = 17)) was 1 (5.9%) subjects (%). For the same molecule, the “suspected AE: Aphthous stomatitis” value ([2]; extension phase, All (N = 17)) was 1 (5.9%) subjects (%), the “suspected AE: Arthralgia” value ([2]; extension phase, All (N = 17)) was 1 (5.9%) subjects (%) and the “suspected AE: Blepharitis” value ([2]; extension phase, All (N = 17)) was 1 (5.9%) subjects (%). For the same molecule, the “suspected AE: Cytolytic hepatitis” value ([2]; extension phase, All (N = 17)) was 1 (5.9%) subjects (%), the “suspected AE: Dermatitis psoriasiform” value ([2]; extension phase, All (N = 17)) was 1 (5.9%) subjects (%) and the “suspected AE: Eczema” value ([2]; extension phase, All (N = 17)) was 1 (5.9%) subjects (%). For the same molecule, the “suspected AE: Gamma-glutamyltransferase increased” value ([2]; extension phase, All (N = 17)) was 1 (5.9%) subjects (%), the “suspected AE: Gingivitis” value ([2]; extension phase, All (N = 17)) was 1 (5.9%) subjects (%) and the “suspected AE: Muscle spasms” value ([2]; extension phase, All (N = 17)) was 1 (5.9%) subjects (%). The “suspected AE: Vomiting” value ([2]; extension phase, All (N = 17)) was 1 (5.9%) subjects (%), the “At least one suspected AE” value ([2]; extension phase, Mild) was 6 (35.3%) subjects (%) and the “suspected AE: Arthralgia” value ([2]; extension phase, Mild) was 1 (5.9%) subjects (%). For the same molecule, the “suspected AE: Blepharitis” value ([2]; extension phase, Mild) was 1 (5.9%) subjects (%), the “suspected AE: Dermatitis psoriasiform” value ([2]; extension phase, Mild) was 1 (5.9%) subjects (%) and the “suspected AE: Edema—all categories” value ([2]; extension phase, Mild) was 1 (5.9%) subjects (%). The “suspected AE: Gamma-glutamyltransferase increased” value ([2]; extension phase, Mild) was 1 (5.9%) subjects (%), the “suspected AE: Gingivitis” value ([2]; extension phase, Mild) was 1 (5.9%) subjects (%) and the “suspected AE: Nausea” value ([2]; extension phase, Mild) was 2 (11.8%) subjects (%). For the same molecule, the “suspected AE: Nausea/Vomiting” value ([2]; extension phase, Mild) was 2 (11.8%) subjects (%), the “At least one suspected AE” value ([2]; extension phase, Moderate) was 5 (29.4%) subjects (%) and the “suspected AE: Abdominal pain” value ([2]; extension phase, Moderate) was 1 (5.9%) subjects (%). The “suspected AE: Cytolytic hepatitis” value ([2]; extension phase, Moderate) was 1 (5.9%) subjects (%), the “suspected AE: Eczema” value ([2]; extension phase, Moderate) was 1 (5.9%) subjects (%) and the “suspected AE: Muscle spasms” value ([2]; extension phase, Moderate) was 1 (5.9%) subjects (%). The “suspected AE: Nausea/Vomiting” value ([2]; extension phase, Moderate) was 1 (5.9%) subjects (%), the “suspected AE: Vomiting” value ([2]; extension phase, Moderate) was 1 (5.9%) subjects (%) and the “At least one suspected AE” value ([2]; extension phase, Severe) was 1 (5.9%) subjects (%). For the same molecule, the “suspected AE: Aphthous stomatitis” value ([2]; extension phase, Severe) was 1 (5.9%) subjects (%), the “At least one suspected AE” value ([2]; initial phase, Mild) was 11 (44.0%) subjects (%) and the “suspected AE: Abdominal pain” value ([2]; initial phase, Mild) was 2 (8.0%) subjects (%). The “suspected AE: Diarrhea” value ([2]; initial phase, Mild) was 1 (4.0%) subjects (%), the “suspected AE: Edema - all categories” value ([2]; initial phase, Mild) was 3 (12.0%) subjects (%) and the “suspected AE: Muscle spasms” value ([2]; initial phase, Mild) was 1 (4.0%) subjects (%). The “suspected AE: Nausea” value ([2]; initial phase, Mild) was 5 (20.0%) subjects (%), the “suspected AE: Nausea/Vomiting” value ([2]; initial phase, Mild) was 6 (24.0%) subjects (%) and the “suspected AE: Vomiting” value ([2]; initial phase, Mild) was 1 (4.0%) subjects (%). The “At least one suspected AE” value ([2]; initial phase, Moderate) was 19 (76.0%) subjects (%), the “suspected AE: Abdominal pain” value ([2]; initial phase, Moderate) was 3 (12.0%) subjects (%) and the “suspected AE: Asthaenia” value ([2]; initial phase, Moderate) was 4 (16.0%) subjects (%). The “suspected AE: Diarrhea” value ([2]; initial phase, Moderate) was 2 (8.0%) subjects (%), the “suspected AE: Dyspnoea” value ([2]; initial phase, Moderate) was 3 (12.0%) subjects (%) and the “suspected AE: Edema - all categories” value ([2]; initial phase, Moderate) was 8 (32.0%) subjects (%). The “suspected AE: Eructation” value ([2]; initial phase, Moderate) was 2 (8.0%) subjects (%), the “suspected AE: Headache” value ([2]; initial phase, Moderate) was 5 (20.0%) subjects (%) and the “suspected AE: Muscle spasms” value ([2]; initial phase, Moderate) was 7 (28.0%) subjects (%). The “suspected AE: Nausea” value ([2]; initial phase, Moderate) was 7 (28.0%) subjects (%), the “suspected AE: Nausea/Vomiting” value ([2]; initial phase, Moderate) was 8 (32.0%) subjects (%) and the “suspected AE: Rash - all categories” value ([2]; initial phase, Moderate) was 6 (24.0%) subjects (%). The “suspected AE: Vomiting” value ([2]; initial phase, Moderate) was 4 (16.0%) subjects (%), the “At least one suspected AE” value ([2]; initial phase, Severe) was 9 (36.0%) subjects (%) and the “suspected AE: Asthaenia” value ([2]; initial phase, Severe) was 3 (12.0%) subjects (%). For the same molecule, the “suspected AE: Diarrhea” value ([2]; initial phase, Severe) was 1 (4.0%) subjects (%), the “suspected AE: Edema - all categories” value ([2]; initial phase, Severe) was 2 (8.0%) subjects (%) and the “suspected AE: Eructation” value ([2]; initial phase, Severe) was 1 (4.0%) subjects (%). For the same molecule, the “suspected AE: Muscle spasms” value ([2]; initial phase, Severe) was 1 (4.0%) subjects (%), the “suspected AE: Nausea” value ([2]; initial phase, Severe) was 1 (4.0%) subjects (%) and the “suspected AE: Nausea/Vomiting” value ([2]; initial phase, Severe) was 1 (4.0%) subjects (%). For the same molecule, the “suspected AE: Rash - all categories” value ([2]; initial phase, Severe) was 2 (8.0%) subjects (%), the “treatment-related SAEs” value ([2]; one patient, two episodes of agranulocytosis at 3 mg/kg/day) was “Two” and the “patients who withdrew due to occurrence of AEs” value ([2]; prior to W12, 2/25 patients) was 8%.

— patent US10045978B2 (AB SCIENCE, priority 2010, dated 2018)
